Experimental data published in patent EP4596537A1, “NOVEL FLUORENE DERIVATIVE COMPOUND AND USE THEREOF” (JD Bioscience Inc., priority 2022, dated 2024).

Assays:
[1] = system: bone marrow-derived dendritic cells (BMDCs); assay: Inflammasome formation (IL-1β ELISA) in LPS/ATP-treated dendritic cells; format: cell-based, C57BL6 mice; conditions: for IL-1β: LPS 500 ng/mL + 5 mM ATP, supernatant; for inhibited IL-1β expression: compared to vehicle control group
Method: Furthermore, to verify the anti-inflammatory effect at a cellular level, bone marrow cells of C57BL6 mice were treated with 20 ng/mL of GM-CSF and IL-4, and 6 days later, bone marrow-derived dendritic cells (BMDCs) were collected. The BMDCs were prepared at 1×10^6 cells/mL and stabilized for one day, and then subsequent experiments were conducted. The above dendritic cells were treated with 500 ng/mL of LPS for 3 hours to prime pro-IL1 β, and then treated with Compound 1 (0 µM, 0.01 µM, 0.1 µM, 1 µM, and 10 µM) for 15 minutes. Next, 5 mM of ATP was treated, which induces inflammasome formation by converting pro-IL1β to IL-1β through pro-IL1β cleavage, and 30 minutes later, the concentration of IL-1β in the supernatant was measured by ELISA, and the results are shown in FIG. 10 and Table 3.

mice = assay: Acute pancreatitis animal model (cerulein-induced); format: in vivo; conditions: 5 µg/kg or 10 µg/kg tail vein; dose-dependent
Method: Acute pancreatitis was induced by intraperitoneal administration of cerulein (50 µg/kg) dissolved in saline to 8-week-old male mice. Compound 1 was administered at a concentration of 5 µg/kg or 10 µg/kg into the tail vein 24 hours and 1 hour before cerulein administration, and cerulein was intraperitoneally administered six times at 1-hour intervals. 18 hours after the first cerulein administration, the mice were anesthetized, the serum was separated, and the amylase and lipase activities in the serum were measured, which are shown in FIG. 8.

normal cells = assay: Growth inhibition (Cell Counting Kit-8), normal cells; format: cell-based; conditions: 24 hours, 10% FBS; concentration of up to less than 40 µM
Method: In order to verify the growth inhibitory effect of Compound 1 on various normal and cancer cell lines, 25 types of cell lines listed in Table 7 below were tested. In detail, each cell was seeded at a density of 2 × 10^4 cells/well in a 96-well plate and cultured for 24 hours, and then the medium was replaced with a medium comprising 0.5% (for cancer cells) or 10% (for normal cells) FBS, and Compound 1 was treated at various concentrations. 24 hours later, 10 µL of Cell Counting Kit-8 (Dojindo Molecular Technologies) was added, and 1 hour later, absorbance at 480 nm was measured using a microplate reader (TECAN SPARK), and the results are shown in FIGS. 15 to 21.

C57BL6J mice = assay: LPS-induced sepsis animal model, viability; format: in vivo; conditions: 15 mg/kg i.p. 30 min before 50 mg/kg LPS
Method: 50 mg/kg of lipopolysaccharide (LPS) administration dose corresponds to the 'half lethal dose' that causes death of one half of the population within 24 hours. […] The animal experiment was conducted with six 8-week-old male C57BL6J mice per group. Each mouse was intraperitoneally administered 15 mg/kg of Compound 1 or pretreated with 100 µL of 10% DMSO (vehicle control). 30 minutes later, 50 mg/kg lipopolysaccharide was intraperitoneally injected into each mouse, and the viability was examined for 80 hours, and the results are shown in FIG. 9 and Table 2.

KKAy diabetes mice = assay: Intraperitoneal glucose tolerance test (IPGTT) in diabetes animal model; format: in vivo; conditions: 0.5 mg/kg once a day by oral gavage, 10 weeks; 1 g/kg glucose i.p.; vs vehicle group
Method: A vehicle (10% DMSO + 0.5% methylcellulose) and the compound of Example 1 (Compound 1) were administered to 6-week-old male KKAy diabetes mice (n = 6 per group) at a dose of 0.5 mg/kg once a day by oral gavage. At 10 weeks of administration, an intraperitoneal glucose tolerance test (IPGTT) was performed by intraperitoneally administering 1 g/kg of glucose, and the results are shown in FIG. 1.

[2] = system: HCT-116 colorectal cancer cell line; assay: Anticancer efficacy in HCT-116 colorectal cancer tumor model; format: in vivo, nude mice; conditions: for reduced tumor growth (tumor volume) compared to vehicle: 21 times, day 24
Method: A colorectal cancer model was established by subcutaneously transplanting HCT-116 colorectal cancer cell line into nude mice. The colorectal cancer model was divided into the following three groups: Group 1 was administered a vehicle as a control group, Group 2 was administered 0.5 mg/kg of Compound 1, and Group 3 was administered 1.0 mg/kg of Compound 1. The drug was orally administered once a day for a total of 21 times. To evaluate the therapeutic efficacy, the tumor size was measured before drug administration and on days 3, 7, 10, 14, 17, 21, and 24 after drug administration. The tumor size was calculated as follows: Tumor size (mm^3) = (A×B^2)/2 [formula] wherein A and B represent the tumor long axis and short axis, respectively.
In addition, the body weight was measured before drug administration and on days 7, 14, and 21 after drug administration.

Mfn2^-/^- MEF cells = assay: Mitochondrial oxygen consumption rate (Seahorse), Charcot-Marie-Tooth disease model; format: cell-based, mouse; conditions: 1 µM, 24 hours
Method: To verify the functional loss due to mutation of MFN2 present in the outer mitochondrial membrane, which is the main cause of Charcot-Marie-Tooth disease, the mitochondrial oxygen consumption rate (OCR) was measured. In detail, Mfn2^+/^+ MEF cells (normal cells), which are mouse embryonic fibroblasts expressing Mfn2, and Mfn2^-/^- MEF cells not expressing Mfn2 were cultured at a density of 1 × 10^4 for 24 hours in a Seahorse XF24 culture dish using a DMEM medium supplemented with 10% FBS and penicillin/streptomycin. The cells were treated with DMSO as a vehicle and Compound 1 (1 µM) and cultured for another 24 hours. The mitochondrial oxygen consumption rate was measured using a […] (Agilent Technologies), and the results are shown in FIG. 13.

CC(C(=O)NNc1ccc(F)cc1)n1cc(-c2cc(F)cc3c2-c2ccccc2C3(O)C(F)(F)F)cn1 (stereo not shown) [Example 1, 2-(4-(2-fluoro-9-hydroxy-9-(trifluoromethyl)-9H-fluoren-4-yl)-1H-pyrazol-1-yl)-N'-(4-fluorophenyl)propanehydrazide]
IL-1β ([1]; 0.01 µM): 1131.823 pg/mL
IL-1β ([1]; 0.1 µM): 1009.825 pg/mL
inhibited IL-1β expression ([1]; 0.1 µM): about 83.802%
IL-1β ([1]; 1 µM): 907.2636 pg/mL
IL-1β ([1]; 10 µM): 647.6982 pg/mL
inhibited IL-1β expression ([1]; 10 µM): about 53.7504%
serum amylase activity (mice): decreased
serum lipase activity (mice): decreased
viability (normal cells): ≥ 70%
Viability (%) (C57BL6J mice; Time 0 h): 100%
Viability (%) (C57BL6J mice; Time 20 h): 100%
Viability (%) (C57BL6J mice; Time 60 h): 50%
Viability (%) (C57BL6J mice; Time 70 h): 50%
Viability (%) (C57BL6J mice; Time 80 h): 50%
blood glucose increase (IPGTT) (KKAy diabetes mice): significantly suppressed
body weight change ([2]; 0.5 mg/kg and 1.0 mg/kg oral, days 7, 14, 21): no significant body weight change
reduced tumor growth (tumor volume) compared to vehicle ([2]; 0.5 mg/kg oral once a day): 41%
reduced tumor growth (tumor volume) compared to vehicle ([2]; 1.0 mg/kg oral once a day): 49%
mitochondrial oxygen consumption rate (OCR) (Mfn2^-/^- MEF cells): markedly restored to a level comparable to that of normal cells
